Results as given in ChEMBL document CHEMBL5506040, “Design of FK866-Based Degraders for Blocking the Nonenzymatic Functions of Nicotinamide Phosphoribosyltransferase” (J Med Chem, 2024).
One block for each molecule: values may come before it. Active and inactive are the calls of the source. The rule behind the calls is not given here.

Tests used:
[1] = Toxicity in immunocompetent female BALB/c mouse implanted with mouse CT26 cells assessed as body weight loss at 20 mg/kg, ip administered for 30 days; assay type: organism-based; settings: in vivo, 720 h, time 30 day
[2] = Induction of NAMPT degradation in immunocompetent female BALB/c mouse implanted with mouse CT26 cells assessed as reduction in intracellular NAMPT level in tumor by measuring fold change at 20 mg/kg, ip administered for 30 days by Western blot analysis (reference value: 1.00); assay type: functional; settings: time 30 day
CT26 [3] = test: cells; settings: Mus musculus, CT26, 72 h
Description: Cytotoxicity against mouse CT26 cells assessed as inhibition of cell growth incubated for 72 hrs by MTT assay

[4] = Toxicity in immunocompetent BALB/c mouse implanted with mouse CT26 cells assessed as change in spleen size at 20 mg/kg, ip administered for 30 days relative to control group; assay type: organism-based; settings: in vivo, 720 h, time 30 day
[5] = Toxicity in immunocompetent BALB/c mouse implanted with mouse CT26 cells assessed as punctate necrosis in liver at 20 mg/kg, ip administered for 30 days by H and E staining based analysis; assay type: organism-based; settings: in vivo, 720 h, time 30 day
SK-OV-3 = test: cells; settings: Homo sapiens, SK-OV-3, 72 h
Description: Cytotoxicity against human SK-OV-3 cells assessed as inhibition of cell growth incubated for 72 hrs by MTT assay

CT26 [6] = test: Antitumor activity against mouse CT26 cells implanted in immunocompetent female BALB/c mouse model assessed as reduction in tumor size at 20 mg/kg, ip administered for 30 days; assay type: functional, organism-based; settings: time 30.0 day
CT26 [7] = test: Antitumor activity against mouse CT26 cells implanted in immunocompetent female BALB/c mouse model assessed as reduction in tumor growth at 20 mg/kg, ip administered for 30 days; assay type: functional, organism-based; settings: time 30.0 day
[8] = Tmax in male Sprague-Dawley rat at 14 mg/kg, ip measured after 24 hrs by LC/MS-MS analysis; assay type: ADME, organism-based; settings: in vivo
[9] = Toxicity in immunocompetent BALB/c mouse implanted with mouse CT26 cells assessed as effect on liver histopathology at 20 mg/kg, ip administered for 30 days by H and E staining based analysis; assay type: organism-based; settings: in vivo, 720 h, time 30 day
CT26 [10] = test: Antitumor activity against mouse CT26 cells implanted in immunocompetent female BALB/c mouse model assessed as reduction in IL-6 expression at 20 mg/kg, ip administered for 30 days by ELISA; assay type: functional, organism-based; settings: time 30.0 day
[11] = Toxicity in immunocompetent BALB/c mouse implanted with mouse CT26 cells assessed as decrease in spleen index at 20 mg/kg, ip administered for 30 days relative to FK866; assay type: organism-based; settings: in vivo, 720 h, time 30 day
[12] = Cmax in male Sprague-Dawley rat at 14 mg/kg, ip measured after 24 hrs by LC/MS-MS analysis; assay type: ADME, organism-based; settings: in vivo
[13] = Half-life in male Sprague-Dawley rat at 14 mg/kg, ip measured after 24 hrs by LC/MS-MS analysis; assay type: ADME, organism-based; settings: in vivo
MIA PaCa-2 = test: cells; settings: Homo sapiens, MIA PaCa-2, 72 h
Description: Cytotoxicity against human MIA PaCa-2 cells assessed as inhibition of cell growth incubated for 72 hrs by MTT assay

[14] = molecular target: T1, von Hippel-Lindau disease tumor suppressor/Nicotinamide phosphoribosyltransferase (Mus musculus) (UniProt Q99KQ4+P40338); test: PROTAC activity at VHL/NAMPT in mouse CT26 cells assessed as induction of extracellular NAMPT degradation incubated for 24 hrs by immunoblot analysis; assay type: cell-based; settings: dose 0.1-5 µM
[15] = molecular target: T1, von Hippel-Lindau disease tumor suppressor/Nicotinamide phosphoribosyltransferase (Mus musculus); test: (§1) PROTAC activity at VHL/NAMPT in mouse CT26 cells assessed as induction of intracellular NAMPT degradation incubated for 24 hrs by Western blot analysis; assay type: cell-based
[16] = molecular target: von Hippel-Lindau disease tumor suppressor/Nicotinamide phosphoribosyltransferase (Mus musculus, UniProt Q99KQ4+P40338); test: as §1; assay type: cell-based
[17] = AUC (0 to 24 hrs) in male Sprague-Dawley rat at 14 mg/kg, ip measured after 24 hrs by LC/MS-MS analysis; assay type: ADME, organism-based; settings: in vivo
CT26 [18] = test: Antitumor activity against mouse CT26 cells implanted in immunocompetent female BALB/c mouse model assessed as reduction in TNF-alpha expression at 20 mg/kg, ip administered for 30 days by ELISA; assay type: functional, organism-based; settings: time 30.0 day
[19] = molecular target: T1, von Hippel-Lindau disease tumor suppressor/Nicotinamide phosphoribosyltransferase (Mus musculus); test: PROTAC activity at VHL/NAMPT in mouse CT26 cells assessed as induction of intracellular NAMPT degradation incubated for 24 hrs by immunoblot analysis; assay type: cell-based; settings: dose 0.1-5 µM
[20] = Apparent volume of distribution during terminal phase in male Sprague-Dawley rat at 14 mg/kg, ip measured after 24 hrs by LC/MS-MS analysis; assay type: ADME, organism-based; settings: in vivo, read-out: Vz/F

T1 sequence (P40338 whole entry, looked up): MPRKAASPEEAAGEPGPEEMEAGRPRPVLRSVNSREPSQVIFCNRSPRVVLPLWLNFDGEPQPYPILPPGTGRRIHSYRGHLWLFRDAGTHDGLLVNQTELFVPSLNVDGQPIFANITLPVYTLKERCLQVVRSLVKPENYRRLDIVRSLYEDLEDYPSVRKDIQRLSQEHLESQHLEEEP
T1 sequence (Q99KQ4 whole entry, looked up): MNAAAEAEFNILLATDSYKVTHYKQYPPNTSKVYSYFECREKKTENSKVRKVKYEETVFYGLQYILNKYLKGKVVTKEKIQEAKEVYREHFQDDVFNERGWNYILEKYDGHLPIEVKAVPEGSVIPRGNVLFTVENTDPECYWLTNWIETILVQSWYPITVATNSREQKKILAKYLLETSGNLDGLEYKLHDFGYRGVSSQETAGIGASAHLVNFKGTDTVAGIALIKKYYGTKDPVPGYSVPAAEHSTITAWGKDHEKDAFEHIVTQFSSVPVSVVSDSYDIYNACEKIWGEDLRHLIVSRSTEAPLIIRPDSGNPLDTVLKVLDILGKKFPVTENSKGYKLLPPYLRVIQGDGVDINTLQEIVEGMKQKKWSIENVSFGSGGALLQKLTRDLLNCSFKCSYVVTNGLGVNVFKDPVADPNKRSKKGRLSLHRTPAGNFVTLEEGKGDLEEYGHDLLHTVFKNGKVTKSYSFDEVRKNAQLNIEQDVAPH
Chain of von Hippel-Lindau disease tumor suppressor/Nicotinamide phosphoribosyltransferase (Q99KQ4 whole entry): as the sequence (Q99KQ4 whole entry, looked up) above
Chain of von Hippel-Lindau disease tumor suppressor/Nicotinamide phosphoribosyltransferase (P40338 whole entry): as the sequence (P40338 whole entry, looked up) above

- IC50 (CT26 [3]): 39 nM
- IC50 (SK-OV-3): 6 nM
SMILES: O=C(/C=C/c1cccnc1)NCCCCC1CCN(C(=O)c2ccccc2)CC1 [DAPORINAD]
- Activity [1]: Non-Toxic
- fold change (FC) [2]: 1.04
- Activity [4]: Toxic
- Activity [5]: Toxic

- Tmax [8]: 1 h
- IC50 (CT26 [3]): 25800 nM
- Cmax [12]: 147 ng/mL
- half-life [13]: 22 h
- IC50 (MIA PaCa-2): 4 nM
- IC50 (SK-OV-3): 1020 nM
- Activity [14]: Dose-Dependent Effect
- Activity [15]: Dose-Dependent Effect
- DC50 [16]: 520 nM
- AUC(0-t) at 24 h [17]: 919 ng·h/mL
- Activity [19]: Dose-Dependent Effect
- Vd/F [20]: 0.483 L/kg
SMILES: Cc1ncsc1-c1ccc([C@@H](C)NC(=O)[C@H]2C[C@H](O)CN2C(=O)[C@H](NC(=O)COCCOCCOCCNC(=O)c2ccc(C(=O)N3CCC(CCCCNC(=O)/C=C/c4cccnc4)CC3)cc2)C(C)(C)C)cc1
- Activity (CT26 [6]): Active
- Activity (CT26 [7]): Active
- Activity [9]: Non-Toxic
- Activity [1]: Non-Toxic
- Activity (CT26 [10]): Active
- Activity [11]: Toxic
- Activity [4]: Non-Toxic
- Activity (CT26 [18]): Active
